# Measured values: patent US20140378408A1, “NUCLEOSIDE 5'-PHOSPHOROTHIOATE ANALOGUES AND USES THEREOF” (BAR-ILAN UNIVERSITY, an Israeli University, priority 2012, published 2014)
# Read-outs that look alike come from different tables or passages of the source.
# What was measured:
# cortical neurons = test: Neuroprotection of cultured cortical neurons exposed to FeSO4 or FeSO4/H2O2; type: cell-based; settings: Table 2, neuroprotection of primary neurons exposed to FeSO4, read-out: IC50
# Description: FIGS. 10A-10B show the neuroprotective effect of ATP-γ-S and GDP-β-S (0.2-200 μM, t=24 h) as evaluated by MTT production in cortical neurons exposed for 24 h to either FeSO4 at final concentration of 3 μM (10A); or both FeSO4 (3 μM) and H2O2 (100 μM) (10B). The results shown are the mean±SEM of three independent experiments in quadruplicate.
# Cultured cortical neurons in 96-well plates were treated with different concentrations of FeSO4, or hydrogen peroxide and FeSO4, for 24 h at 37° C. Following exposure to various insults, the cells were treated with ATP-γ-S and GDP-β-S as described. Cells were subsequently incubated for a further 18-24 h as indicated before being assessed for viability measures. Neurons were treated with ATP-γ-S and GDP-β-S at three concentrations ([…]) simultaneously with 1.5, 3 or 6 μM FeSO4 for 24 h. Following 24 h incubation in the presence of both FeSO4 and ATP-γ-S and GDP-β-S cell viability measures were assessed by XTT assay. All experiments were performed in triplicate.
# FeSO4 induced a concentration-dependent decrease in cell viability as assessed by XTT assay and morphological assessment following 24 h of exposure (FIG. 9). The neuroprotective effect of ATP-γ-S and GDP-β-S (due to iron chelation) was evaluated in cortical neurons exposed to FeSO4 for 24 h (FIG. 10).
# human P2Y1-R = molecular target: T1, human P2Y1-R (Homo sapiens, UniProt P47900); test: [Ca^2+]i response of 1321N1 astrocytoma cells expressing P2Y1-R GFP; type: cell-based; settings: agonist; read-out: EC50 at the P2Y1 receptor
# T1 construct: expressed in transfected cells; host or cells: 1321N1 astrocytoma cells
# T1 sequence (P47900 whole entry): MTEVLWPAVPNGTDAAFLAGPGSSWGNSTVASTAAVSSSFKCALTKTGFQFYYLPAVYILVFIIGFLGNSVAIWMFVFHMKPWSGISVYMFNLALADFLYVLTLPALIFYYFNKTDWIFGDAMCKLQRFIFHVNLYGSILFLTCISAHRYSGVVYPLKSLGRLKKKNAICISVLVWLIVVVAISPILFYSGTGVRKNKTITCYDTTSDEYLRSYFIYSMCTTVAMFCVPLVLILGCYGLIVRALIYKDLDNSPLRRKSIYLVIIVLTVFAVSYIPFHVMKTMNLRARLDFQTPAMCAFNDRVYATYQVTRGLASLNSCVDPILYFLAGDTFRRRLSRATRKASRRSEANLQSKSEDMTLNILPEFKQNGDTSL
# Description: GFP constructs of human P2Y2-R, P2Y1-R and P2Y11-R were stably expressed in 1321N1 astrocytoma cells, which lack endogenous expression of P2X- and P2Y-receptors. The respective cDNA of the receptor gene was cloned into a pEGFPN1 vector and after transfection, using FuGENE 6 Transfection Reagent (Roche Molecular Biochemicals, Mannheim, Germany), cells were selected with 0.5 mg/ml G418 (geneticine; Merck Chemicals, Darmstadt, Germany) and grown in DMEM supplemented with 10% serum (FCS), 100 U/ml penicillin and 100 U/ml streptomycin at 37° C. and 5% CO2. The expression and cell membrane localization of the respective P2Y receptors was confirmed through the analysis of the GFP fluorescence. The functionality of the expressed GFP-labeled receptor in cells was verified by recording a change of [Ca^2+]i after stimulation with the appropriate receptor agonist.
# 1321N1 astrocytoma cells transfected with the respective plasmid for P2Y-R-GFP expression plated on coverslips (22 mm diameter) and grown to approximately 80% density, were incubated with 2 μM fura 2/AM and 0.02% pluronic acid in Na-HBS buffer (Hepes buffered saline: 145 mM NaCl, 5.4 mM KCl, 1.8 mM CaCl2, 1 mM MgCl2, 25 mM glucose, 20 mM Hepes/Tris pH 7.4) for 30 min at 37° C. The cells were superfused (1 ml/min, 37° C.) with different concentrations of nucleotide in Na-HBS buffer. The nucleotide-induced change of [Ca^2+] was monitored by detecting the fluorescence intensities with excitations at 340 nm and 380 nm. Only GFP-labeled cells were analyzed. Microsoft Excel (Microsoft Corp., Redmond, Wash., USA) and SigmaPlot (SPSS Inc., Chicago, Ill., USA) were used to derive the concentration-response curves and EC50 values from the average response amplitudes obtained in at least three independent experiments (Ecke et al., 2006; Ecke et al., 2008). Only cells with a clear GFP-signal and with the typical calcium response kinetics upon agonist pulse application were included in the data analysis. The nucleotide induced change of [Ca^2+]i was monitored by detecting the respective emission intensity of fura 2/AM at 510 nm with 340 nm and 380 nm excitations (Ubl et al., 1998). The average maximal amplitude of the responses and the respective standard errors were calculated from ratio of the fura 2/AM. The GFP-tagged P2Y receptors are suitable for pharmacological and physiological studies, as previously reported (Tulapurkar et al., 2004; Tulapurkar et al., 2006; Zylberg et al., 2007).
# human NPP1 = molecular target: T2, human NPP1 (Homo sapiens, UniProt P22413); test: Inhibition of NPP1 activity; type: biochemical; settings: Dixon and Cornish-Bowden methods
# T2 construct: made in house; host or cells: COS-7 cells (transfected; protein extract / cell lysate)
# T2 sequence (P22413 1-925): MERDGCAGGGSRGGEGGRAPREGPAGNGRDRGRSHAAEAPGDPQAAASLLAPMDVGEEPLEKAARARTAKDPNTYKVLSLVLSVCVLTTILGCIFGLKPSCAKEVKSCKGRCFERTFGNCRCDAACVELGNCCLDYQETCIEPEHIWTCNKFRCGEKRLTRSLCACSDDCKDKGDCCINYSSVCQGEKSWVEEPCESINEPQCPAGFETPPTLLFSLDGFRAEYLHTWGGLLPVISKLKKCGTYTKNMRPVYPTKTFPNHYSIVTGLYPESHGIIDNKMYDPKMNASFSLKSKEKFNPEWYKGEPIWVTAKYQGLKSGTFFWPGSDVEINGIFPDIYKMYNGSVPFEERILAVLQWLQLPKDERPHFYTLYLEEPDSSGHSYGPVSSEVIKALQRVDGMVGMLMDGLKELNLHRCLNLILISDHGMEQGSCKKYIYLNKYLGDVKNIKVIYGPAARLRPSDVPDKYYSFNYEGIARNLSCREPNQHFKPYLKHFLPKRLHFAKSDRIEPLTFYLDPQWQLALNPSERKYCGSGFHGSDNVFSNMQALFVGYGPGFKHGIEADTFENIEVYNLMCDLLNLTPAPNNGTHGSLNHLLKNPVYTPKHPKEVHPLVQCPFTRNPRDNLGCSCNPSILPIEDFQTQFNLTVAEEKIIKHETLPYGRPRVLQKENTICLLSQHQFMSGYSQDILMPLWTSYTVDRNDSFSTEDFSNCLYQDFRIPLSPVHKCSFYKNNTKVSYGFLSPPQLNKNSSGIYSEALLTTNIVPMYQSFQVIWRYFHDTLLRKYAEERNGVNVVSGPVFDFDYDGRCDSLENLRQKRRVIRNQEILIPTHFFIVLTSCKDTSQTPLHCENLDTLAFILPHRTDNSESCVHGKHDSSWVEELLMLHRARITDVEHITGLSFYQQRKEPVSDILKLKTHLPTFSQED
# human NPP3 = molecular target: T3, human NPP3 (Homo sapiens, UniProt O14638); test: Inhibition of NPP3 activity; type: biochemical; settings: read-out: inhibition of NPP3 activity
# T3 construct: made in house; host or cells: COS-7 cells (transfected; protein extract / cell lysate)
# T3 sequence (O14638 1-875): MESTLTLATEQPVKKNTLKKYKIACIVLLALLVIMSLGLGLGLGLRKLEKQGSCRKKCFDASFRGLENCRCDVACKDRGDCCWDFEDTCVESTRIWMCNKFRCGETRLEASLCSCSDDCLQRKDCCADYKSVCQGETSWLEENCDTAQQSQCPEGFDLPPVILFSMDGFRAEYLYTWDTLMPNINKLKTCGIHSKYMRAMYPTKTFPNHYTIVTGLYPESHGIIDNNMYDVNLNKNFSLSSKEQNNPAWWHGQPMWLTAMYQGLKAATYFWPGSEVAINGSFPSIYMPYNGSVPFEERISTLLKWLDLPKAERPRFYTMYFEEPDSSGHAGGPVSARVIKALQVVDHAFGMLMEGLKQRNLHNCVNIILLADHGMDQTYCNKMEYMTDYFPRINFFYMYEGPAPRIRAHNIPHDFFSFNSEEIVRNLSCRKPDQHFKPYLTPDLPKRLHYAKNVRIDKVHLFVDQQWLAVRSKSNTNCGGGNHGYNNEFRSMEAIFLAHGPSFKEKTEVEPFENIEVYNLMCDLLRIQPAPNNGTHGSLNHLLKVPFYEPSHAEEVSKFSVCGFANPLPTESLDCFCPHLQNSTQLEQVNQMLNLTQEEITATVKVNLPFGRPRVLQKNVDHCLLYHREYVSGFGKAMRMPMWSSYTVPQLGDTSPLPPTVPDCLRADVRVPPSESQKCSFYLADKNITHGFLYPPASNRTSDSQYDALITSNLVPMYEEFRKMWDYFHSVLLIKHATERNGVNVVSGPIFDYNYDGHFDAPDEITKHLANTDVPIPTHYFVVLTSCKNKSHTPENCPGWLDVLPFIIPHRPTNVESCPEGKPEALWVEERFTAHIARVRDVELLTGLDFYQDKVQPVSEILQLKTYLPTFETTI
# Description: Pnp-TMP hydrolyses were carried out at 37° C. in 0.2 ml of the following incubation mixture: in mM, 1 CaCl2, 130 NaCl, 5 KCl and 50 Tris, pH 8.5, with or without the analogue tested and/or substrates. Substrates and analogues were all used at the final concentration of 100 μM. […] For pnp-TMP hydrolysis, the production of para-nitro-phenol was measured at […], 15 min after the initiation of the reaction.
# The samples were centrifuged for 5 min at 13,000×g. Supernatants were neutralized with 1 M KOH (Fisher Scientific, Ottawa, ON, Canada) at 4° C. and centrifuged for 5 min at 13,000×g.
# [1] = ESR OH radical assay, Fe^2+/H2O2 Fenton system; settings: N/A = minimal radical production exceeds 10%
# PC12 cells = test: Inhibition of Fe(II)-induced ROS formation in PC12 cells (DCFH-DA); type: cell-based; settings: PC12 cells, FeSO4 0.16 μM, 1 h, DCFH-DA; read-out: IC50 inhibition of ROS formation
# Description: In this study, nucleoside 5′-phosphorothioate analogues were explored as inhibitors of Fe(II)-induced oxidative stress in PC12 cells used as a neuronal model. Reduction of ROS production in PC12 cells by each one of the tested analogues was measured by DCFH-DA, a radical sensitive indicator. After DCFH-DA was removed, the tested analogue was added to the cells at a final concentration of 0.2-200 μM. Oxidation was initiated by the addition of FeSO4 (0.16 μM) to the wells. The plates were incubated for 1 h at 37° C., during which the absorbance was read by a Tecan fluorometer at 485/530 nm.
# Aβ28-Cu^+ complex = molecular target: T4, Aβ28-Cu^+ complex (Homo sapiens, UniProt P05067); test: Titration of Aβ28-Cu^+ complex by chelators monitored by 1H-NMR; settings: 0.8 mM Aβ28-Cu^+, pD 7; for effect on Aβ28-Cu^+ 1H-NMR spectrum: 6 eq chelator
# T4 construct: we first studied Aβ28, as a more soluble fragment of Aβ40; purchased Sigma-Aldrich
# T4 sequence (P05067 672-699 limits assumed, one chain of several): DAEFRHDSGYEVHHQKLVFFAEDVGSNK
smiles,measurement,setting,value
"Nc1ncnc2c1ncn2[C@@H]1O[C@H](COP(=O)(O)OP(=O)(O)O)[C@@H](O)[C@H]1O [ADP, adenosine diphosphate]",IC50,cortical neurons; Cortical neurone,19 ± 1.9 µM
"Nc1ncnc2c1ncn2C1OC(COP(O)(=S)OP(=O)(O)CP(=O)(O)O)C(O)C1O (stereo not drawn) [APPCP-α-S, adenosine 5′-[Pα-thio]-β,γ-methylenetriphosphate]",EC50,human P2Y1-R,> 10 µM
same,type of inhibition,human NPP1,"mixed type inhibition, predominantly competitive"
same,inhibition at 100 µM,human NPP3,23 to 43%
O=C(O)CC(O)(CC(=O)O)C(=O)O [Citrate],IC50,cortical neurons; Cortical neurone,25 ± 3.3 µM
"Nc1nc2c(ncn2[C@@H]2O[C@H](COP(=O)(O)OP(=O)(O)O)[C@@H](O)[C@H]2O)c(=O)[nH]1 [GDP, gunosine diphosphate]",IC50,cortical neurons,21 ± 3.1 µM
"N[C@@H](CCC(=O)N[C@@H](CS)C(=O)NCC(=O)O)C(=O)O [GSH, glutathione]",IC90,[1],491 ± 5 µM
"Nc1nc2c(ncn2[C@@H]2O[C@H](COP(=O)(O)OP(=O)(O)OP(=O)(O)O)[C@@H](O)[C@H]2O)c(=O)[nH]1 [GTP, guanosine triphosphate]",IC50,cortical neurons; Cortical neurone,32 ± 2.3 µM
"Nc1nc2c(ncn2[C@@H]2O[C@H](COP(=O)(O)OP(=O)(O)OP(O)(O)=S)[C@@H](O)[C@H]2O)c(=O)[nH]1 [GTP-γ-S, guanosine 5′-[γ-thio]triphosphate]",IC50,PC12 cells,5 µM
same,IC50,cortical neurons,0.04 ± 0.01 µM
same,equivalents at which the spectrum resembled that of pure Aβ28,Aβ28-Cu^+ complex,3.2 eq
"[Na+].[Na+].[Na+].[O-]P([O-])([O-])=S [Thiophosphate, trisodiumthiophosphate]",effect on Aβ28-Cu^+ 1H-NMR spectrum,Aβ28-Cu^+ complex,significant sharpening of the Aβ28 spectrum
Cc1c(C)c2c(c(C)c1O)CCC(C)(C(=O)O)O2 (centres unmarked) [Trolox],IC50,cortical neurons; Cortical neurone,23 ± 3.1 µM
"O=P([O-])([O-])OP(=O)([O-])OP(=O)([O-])[O-].[Na+].[Na+].[Na+].[Na+].[Na+] [triphosphate, sodium triphosphate]",effect on Aβ28-Cu^+ 1H-NMR spectrum,Aβ28-Cu^+ complex,showed only Phe peaks reappearances without any His signals
